Paper PMC11844072, “Novel 5,6-dichlorobenzimidazole derivatives as dual BRAFWT and BRAFV600E inhibitors: design, synthesis, anti-cancer activity and molecular dynamics simulations” (BMC Chemistry, 2025)

Key:
Experiment in all cases: NCI 60 single concentration growth inhibition
Format in all cases: cell-based, human
A549/ATCC = conditions: Non-small cell lung cancer; for inhibition at 10 µM: Homo sapiens, read-out: GI%
How it was run: (§1)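 Cells are plated and left 24 h, and a time-zero plate is fixed at drug addition. Compound is then added for 48 h, the cells are fixed in cold TCA and stained with 0.4% SRB, and bound dye is solubilised in 10 mM Tris for reading at 515 nm.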

KM12 = conditions: KM12, Colon cancer; for inhibition at 10 µM: Homo sapiens, read-out: GI%
How it was run: as §1

M14 = conditions: M14, Melanoma; for inhibition at 10 µM: Homo sapiens, read-out: GI%
How it was run: as §1

MDA-MB-435 = conditions: MDA-MB-435, Melanoma; for inhibition at 10 µM: Homo sapiens, read-out: GI%
How it was run: as §1

MDA-MB-468 = conditions: MDA-MB-468, Breast cancer; for inhibition at 10 µM: Homo sapiens, read-out: GI%
How it was run: as §1

MOLT-4 = conditions: MOLT-4, Leukemia; for inhibition at 10 µM: Homo sapiens, read-out: GI%
How it was run: (§2)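 Single-dose screen at 10 µM across the NCI-60 panel, then five concentrations (10-fold or ½ log dilutions) for selected compounds. Cells in RPMI 1640, 5% FBS, 2 mM L-glutamine, preincubated 24 h, then drug exposure 48 h at 37 °C. TCA fixation, SRB stain read at 515 nm; percent growth calculated against time-zero and untreated controls.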

NCI-H226 = conditions: NCI-H226, Non-small cell lung cancer; for inhibition at 10 µM: Homo sapiens, read-out: GI%
How it was run: as §1

PC-3 = conditions: PC-3, Prostate cancer; for inhibition at 10 µM: Homo sapiens, read-out: GI%
How it was run: as §1

RPMI-8226 = conditions: RPMI-8226, Leukemia; for inhibition at 10 µM: Homo sapiens, read-out: GI%
How it was run: as §1

RXF 393 = conditions: RXF 393, Renal cancer; for inhibition at 10 µM: Homo sapiens, read-out: GI%
How it was run: as §1

SF-268 = conditions: SF-268, CNS cancer; for inhibition at 10 µM: Homo sapiens, read-out: GI%
How it was run: as §1

SF-295 = conditions: SF-295, CNS cancer; for inhibition at 10 µM: Homo sapiens, read-out: GI%
How it was run: as §1

SK-MEL-2 = conditions: SK-MEL-2, Melanoma; for inhibition at 10 µM: Homo sapiens, read-out: GI%
How it was run: as §1

SK-MEL-5 = conditions: SK-MEL-5, Melanoma; for inhibition at 10 µM: Homo sapiens, read-out: GI%
How it was run: as §1

SK-OV-3 = conditions: SK-OV-3, Ovarian cancer; for inhibition at 10 µM: Homo sapiens, read-out: GI%
How it was run: as §1

SR = conditions: Leukemia; for inhibition at 10 µM: Homo sapiens, read-out: GI%
How it was run: as §2

Compound: COc1ccc(-c2nc3cc(Cl)c(Cl)cc3n2CC(=O)NN=Cc2cccc(OC)c2)cc1 [Compound 10c, 2-(5,6-Dichloro-2-(4-methoxyphenyl)-1H-benzo[d]imidazol-1-yl)-N'-(3-methoxybenzylidene)acetohydrazide]
- inhibition at 10 µM (A549/ATCC): 36.1%
- inhibition at 10 µM (KM12): 17.6%
- inhibition at 10 µM (M14): 34.1%
- inhibition at 10 µM (MDA-MB-435): 33%
- inhibition at 10 µM (MDA-MB-468): 76.1%
- inhibition at 10 µM (MOLT-4): 70.3%
- inhibition at 10 µM (NCI-H226): 17.1%
- inhibition at 10 µM (PC-3): 29.5%
- inhibition at 10 µM (RPMI-8226): 47.3%
- inhibition at 10 µM (RXF 393): 23.1%
- inhibition at 10 µM (SF-268): 48.3%
- inhibition at 10 µM (SF-295): 22.3%
- inhibition at 10 µM (SK-MEL-2): 19.4%
- inhibition at 10 µM (SK-MEL-5): 44.5%
- inhibition at 10 µM (SK-OV-3): 10.1%
- inhibition at 10 µM (SR): 48.4%

Compound: COc1ccc(-c2nc3cc(Cl)c(Cl)cc3n2CC(=O)NN=Cc2ccc(OC)c(O)c2)cc1 [Compound 10k, 2-(5,6-Dichloro-2-(4-methoxyphenyl)-1H-benzo[d]imidazol-1-yl)-N'-(3-hydroxy-4-methoxybenzylidene)acetohydrazide]
- inhibition at 10 µM (A549/ATCC): 49.9%
- inhibition at 10 µM (KM12): 20.1%
- inhibition at 10 µM (M14): 34.7%
- inhibition at 10 µM (MDA-MB-435): 46.8%
- inhibition at 10 µM (MDA-MB-468): 71.2%
- inhibition at 10 µM (MOLT-4): 76.1%
- inhibition at 10 µM (NCI-H226): 48.1%
- inhibition at 10 µM (PC-3): 56.6%
- inhibition at 10 µM (RPMI-8226): 38.8%
- inhibition at 10 µM (RXF 393): 42.2%
- inhibition at 10 µM (SF-268): 45.6%
- inhibition at 10 µM (SF-295): 50%
- inhibition at 10 µM (SK-MEL-2): 40.2%
- inhibition at 10 µM (SK-MEL-5): 62.2%
- inhibition at 10 µM (SK-OV-3): < 5%
- inhibition at 10 µM (SR): 52.2%

Compound: COC(=O)COc1ccc(C=NNC(=O)Cn2c(-c3ccc(OC)cc3)nc3cc(Cl)c(Cl)cc32)cc1OC [Compound 10p, Methyl-2-(4-((2-(2-(5,6-dichloro-2-(4-methoxyphenyl)-1H-benzo[d]imidazol-1-yl)acetyl)hydrazono)methyl)-2-methoxyphenoxy)acetate]
- inhibition at 10 µM (A549/ATCC): < 5%
- inhibition at 10 µM (KM12): < 5%
- inhibition at 10 µM (M14): < 5%
- inhibition at 10 µM (MDA-MB-435): 31.9%
- inhibition at 10 µM (MDA-MB-468): 159%
- inhibition at 10 µM (MOLT-4): 13.7%
- inhibition at 10 µM (NCI-H226): < 5%
- inhibition at 10 µM (PC-3): 79.8%
- inhibition at 10 µM (RPMI-8226): 15.7%
- inhibition at 10 µM (RXF 393): 186%
- inhibition at 10 µM (SF-268): < 5%
- inhibition at 10 µM (SF-295): < 5%
- inhibition at 10 µM (SK-MEL-2): 24.1%
- inhibition at 10 µM (SK-MEL-5): 6.06%
- inhibition at 10 µM (SK-OV-3): < 5%
- inhibition at 10 µM (SR): 92.8%

Compound: COC(=O)COc1cc(C=NNC(=O)Cn2c(-c3ccc(OC)cc3)nc3cc(Cl)c(Cl)cc32)ccc1OC [Compound 10o, Methyl-2-(5-((2-(2-(5,6-dichloro-2-(4-methoxyphenyl)-1H-benzo[d]imidazol-1-yl)acetyl)hydrazono)methyl)-2-methoxyphenoxy)acetate]
- inhibition at 10 µM (A549/ATCC): 8.33%
- inhibition at 10 µM (KM12): < 5%
- inhibition at 10 µM (M14): 36.5%
- inhibition at 10 µM (MDA-MB-435): 45.5%
- inhibition at 10 µM (MDA-MB-468): 118%
- inhibition at 10 µM (MOLT-4): 40.4%
- inhibition at 10 µM (NCI-H226): 10.2%
- inhibition at 10 µM (PC-3): 51.2%
- inhibition at 10 µM (RPMI-8226): 17.9%
- inhibition at 10 µM (RXF 393): 129%
- inhibition at 10 µM (SF-268): 18.6%
- inhibition at 10 µM (SF-295): < 5%
- inhibition at 10 µM (SK-MEL-2): 26.6%
- inhibition at 10 µM (SK-MEL-5): 6.53%
- inhibition at 10 µM (SK-OV-3): 24.1%
- inhibition at 10 µM (SR): 90.9%

Compound: COc1ccc(C=NNC(=O)Cn2c(-c3ccc(OC)cc3)nc3cc(Cl)c(Cl)cc32)cc1 [Compound 10d, 2-(5,6-Dichloro-2-(4-methoxyphenyl)-1H-benzo[d]imidazol-1-yl)-N'-(4-methoxybenzylidene)acetohydrazide]
- inhibition at 10 µM (A549/ATCC): 59.4%
- inhibition at 10 µM (KM12): 40.8%
- inhibition at 10 µM (M14): 38.2%
- inhibition at 10 µM (MDA-MB-435): 41.4%
- inhibition at 10 µM (MDA-MB-468): 81.8%
- inhibition at 10 µM (MOLT-4): 68.9%
- inhibition at 10 µM (NCI-H226): 33.9%
- inhibition at 10 µM (PC-3): 68.5%
- inhibition at 10 µM (RPMI-8226): 64.9%
- inhibition at 10 µM (RXF 393): 38.7%
- inhibition at 10 µM (SF-268): 48.6%
- inhibition at 10 µM (SF-295): 66.8%
- inhibition at 10 µM (SK-MEL-2): 30.9%
- inhibition at 10 µM (SK-MEL-5): 78.9%
- inhibition at 10 µM (SK-OV-3): 30.4%
- inhibition at 10 µM (SR): 35.1%

Compound: 2-(4-((2-(2-(5,6-Dichloro-2-(4-methoxyphenyl)-1H-benzo[d]imidazol-1-yl)acetyl)hydrazono)methyl) -2-methoxyphenoxy)acetic acid [Compound 10m]
- GI% (A549/ATCC; 10 μM): – (GI% < 5%)
- GI% (KM12; 10 μM): – (GI% < 5%)
- GI% (M14; 10 μM): – (GI% < 5%)
- GI% (MDA-MB-435; 10 μM): – (GI% < 5%)
- GI% (MDA-MB-468; 10 μM): – (GI% < 5%)
- GI% (MOLT-4; 10 μM): – (GI% < 5%)
- GI% (NCI-H226; 10 μM): 11.67%
- GI% (PC-3; 10 μM): – (GI% < 5%)
- GI% (RPMI-8226; 10 μM): – (GI% < 5%)
- GI% (RXF 393; 10 μM): – (GI% < 5%)
- GI% (SF-268; 10 μM): – (GI% < 5%)
- GI% (SF-295; 10 μM): – (GI% < 5%)
- GI% (SK-MEL-2; 10 μM): – (GI% < 5%)
- GI% (SK-MEL-5; 10 μM): – (GI% < 5%)
- GI% (SK-OV-3; 10 μM): – (GI% < 5%)
- GI% (SR; 10 μM): – (GI% < 5%)

Compound: COC(=O)COc1cccc(C=NNC(=O)Cn2c(-c3ccc(OC)cc3)nc3cc(Cl)c(Cl)cc32)c1 [Compound 10g, Methyl-2-(3-((2-(2-(5,6-dichloro-2-(4-methoxyphenyl)-1H-benzo[d]imidazol-1-yl)acetyl)hydrazono)methyl)phenoxy)acetate]
- inhibition at 10 µM (A549/ATCC): < 5%
- inhibition at 10 µM (KM12): < 5%
- inhibition at 10 µM (M14): < 5%
- inhibition at 10 µM (MDA-MB-435): 11.9%
- inhibition at 10 µM (MDA-MB-468): 112%
- inhibition at 10 µM (MOLT-4): 30.4%
- inhibition at 10 µM (NCI-H226): 8%
- inhibition at 10 µM (PC-3): 36.9%
- inhibition at 10 µM (RPMI-8226): < 5%
- inhibition at 10 µM (RXF 393): 32.9%
- inhibition at 10 µM (SF-268): < 5%
- inhibition at 10 µM (SF-295): < 5%
- inhibition at 10 µM (SK-MEL-2): < 5%
- inhibition at 10 µM (SK-MEL-5): 8.95%
- inhibition at 10 µM (SK-OV-3): < 5%
- inhibition at 10 µM (SR): 78.3%
